Reference: ChEMBL document CHEMBL4602687, “Dual Binding to Orthosteric and Allosteric Sites Enhances the Anticancer Activity of a TRAP1-Targeting Drug” (J Med Chem, 2020)
Changes are numbered by the printed parent chain. Activity calls are given as the source filed them. The calls are words filed in the database; no cut-off is given here.

Legend:
Mus musculus = experiment: In vivo inhibition of TRAP1 in nude mouse xenografted with human NCI-H460 cells assessed as increase in SDHB degradation at 5 mg/kg, ip administered daily by Western blot analysis; format: functional, organism-based
[1] = system: T1, Heat shock protein 75 kDa, mitochondrial (Homo sapiens), Q12931 [E403K]; experiment: Inhibition of recombinant wild-type human TRAP1 E403K mutant ATPase activity expressed in Escherichia coli BL21 (DE3) up to 20 uM preincubated for 0.5 hrs followed by ATP addition and measured after 3 hrs by PiColorLock Gold reagent based colorimetric assay
T1 sequence (whole entry): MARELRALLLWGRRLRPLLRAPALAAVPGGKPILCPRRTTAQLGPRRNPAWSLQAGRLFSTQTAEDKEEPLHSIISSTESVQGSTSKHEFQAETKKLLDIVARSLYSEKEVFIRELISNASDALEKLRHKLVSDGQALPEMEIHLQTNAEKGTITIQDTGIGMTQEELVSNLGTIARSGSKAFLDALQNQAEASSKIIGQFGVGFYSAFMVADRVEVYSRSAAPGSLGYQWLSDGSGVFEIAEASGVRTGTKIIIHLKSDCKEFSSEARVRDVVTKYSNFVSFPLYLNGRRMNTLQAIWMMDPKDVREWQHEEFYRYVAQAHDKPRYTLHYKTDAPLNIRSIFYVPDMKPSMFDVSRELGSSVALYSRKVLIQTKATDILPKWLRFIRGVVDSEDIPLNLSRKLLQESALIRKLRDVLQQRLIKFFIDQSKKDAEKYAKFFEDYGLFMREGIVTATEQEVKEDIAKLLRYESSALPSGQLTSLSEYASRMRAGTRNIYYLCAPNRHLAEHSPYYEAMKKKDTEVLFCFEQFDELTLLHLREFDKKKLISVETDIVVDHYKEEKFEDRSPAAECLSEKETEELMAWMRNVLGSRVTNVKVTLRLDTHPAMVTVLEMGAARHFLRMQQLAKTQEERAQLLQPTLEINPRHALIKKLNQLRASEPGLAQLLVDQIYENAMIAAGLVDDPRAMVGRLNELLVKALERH

NCI-H460 [2] = experiment: Antitumor activity against human NCI-H460 cells xenografted in nude mouse assessed as induction of tumor cell death by measuring increase in cleaved caspase-3 expression at 5 mg/kg, ip administered daily by Western blot analysis; format: functional, organism-based
[3] = molecular target: T2, Heat shock protein 75 kDa, mitochondrial (Homo sapiens) (UniProt Q12931); experiment: Inhibition of TRAP1 in human PC3 cells assessed as reduction in SIRT3 expression at 5 uM measured after 2 to 12 hrs by Western blot analysis; format: cell-based; conditions: PC-3
T2 sequence (whole entry): T1 sequence (whole entry) with K403E

Homo sapiens = organism: Homo sapiens; experiment: Inhibition of recombinant full-length human TRAP1 W585/W4F mutant expressed in Escherichia coli BL21 (DE3) assessed as intrinsic fluorescence quenching of tryptophan residues at 10 uM measured after 1 hr by fluorescence spectrophotometric method
[4] = molecular target: T2, Heat shock protein 75 kDa, mitochondrial (Homo sapiens); experiment: Inhibition of recombinant wild-type human TRAP1 expressed in Escherichia coli BL21 (DE3) assessed as intrinsic fluorescence quenching of tryptophan residues at 10 uM measured after 1 hr by fluorescence spectrophotometric method
[5] = system: T3, Heat shock protein 75 kDa, mitochondrial (Homo sapiens), Q12931 [R114E,E403K]; experiment: Stimulation of recombinant […] human TRAP1 R114E/E403K mutant ATPase activity expressed in Escherichia coli BL21 (DE3) up to 20 uM preincubated for 0.5 hrs followed by ATP addition and measured after 3 hrs by PiColorLock Gold reagent based colorimetric assay
T3 sequence (whole entry): T1 sequence (whole entry) with R114E

NCI-H460 [6] = experiment: Cytotoxicity against human NCI-H460 cells assessed as reduction in cell viability up to 3 uM measured after 24 hrs by MTT assay; format: functional, cell-based

- inhibition [1]: Active
- inhibition [3]: Active
- inhibition (Homo sapiens): Active
- inhibition [4]: Active
- Activity [5]: Active
Compound: Nc1ncnc2c1nc(Sc1cc3c(cc1I)OCO3)n2CCCCCCCCCC[P+](c1ccccc1)(c1ccccc1)c1ccccc1
- inhibition (Mus musculus): Active
- Activity (NCI-H460 [2]): Active
- Activity (NCI-H460 [6]): Active
